# Test system: HIF-1α levels in A498 (VHL-null) cells
# Experiment: HIF-1α accumulation in VHL-null A498 cells
# Format: cell-based
# Details: 1a 3 μM, VH298 100 μM, 2 h
# Description: FIG. 3 depicts the effect of complex 1a on HIF-1α target gene products in cellulo. (A) Effect of complex 1a on specific proteins (GLUT1, VEGF, and EPO) mediated by HIF-1α in HEK293 cells. HEK293 cells were treated with 1a for 2 h. Cell lysis were collected and analyzed by the Western blotting. (B) Complex 1a has no effect on HIF-1α accumulation in a VHL null cancer cell line. A498 (VHL-null), or HEK293 cells were treated with 1% DMSO, 1a (3 μM), VH298 (100 μM), and FG-4592 (100 μM) for 2 h before lysis. (C) Effect of complex 1a on EPO, GLUT1, and VEGF levels in HEK293 cells with or without HIF-1α knockdown. Left: The expression levels of EPO, GLUT1, and VEGF in HEK293 cells with or without knockdown HIF-1α in the presence or absence of 1a. Right: Densitometry analysis of EPO, GLUT1, and VEGF levels on the Western blot. HIF-1α siRNA [sense, 5′-[…]-3′ (SEQ ID NO:1), antisense, 5′-[…]-3′ (SEQ ID NO:2)]. Negative control (NC) siRNA [sense, 5′-[…]-3′ (SEQ ID NO:3), antisense, 5′-[…]-3′ (SEQ ID NO:4)]. Data are expressed as means±SD (n=3 independent experiments), P values were calculated using a two-sided t-test. #P<0.05, P<0.01 HIF-1α siRNA vs. NC siRNA, *P<0.05, **P<0.01 1a vs. vehicle/DMSO group, respectively. […]
row,SMILES,HIF-1α levels in A498 cells
1,"Cc1ncsc1-c1ccc(CNC(=O)[C@@H]2C[C@@H](O)CN2C(=O)[C@@H](NC(=O)C2(C#N)CC2)C(C)(C)C)cc1 [VH298, reference compound]",no increase in HIF-1α levels

# Biological target: T1, human recombinant VHL:ElonginB:ElonginC (VBC) complex (Homo sapiens, UniProt P40337)
# T1 construct: made in house
# T1 sequence (P40337 whole entry): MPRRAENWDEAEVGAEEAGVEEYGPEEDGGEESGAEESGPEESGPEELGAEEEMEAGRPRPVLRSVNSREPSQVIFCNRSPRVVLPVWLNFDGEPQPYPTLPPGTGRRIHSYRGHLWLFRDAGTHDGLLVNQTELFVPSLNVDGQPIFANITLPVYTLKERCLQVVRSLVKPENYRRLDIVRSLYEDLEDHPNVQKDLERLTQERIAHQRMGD
# T1 sequence (Q15370 whole entry partner): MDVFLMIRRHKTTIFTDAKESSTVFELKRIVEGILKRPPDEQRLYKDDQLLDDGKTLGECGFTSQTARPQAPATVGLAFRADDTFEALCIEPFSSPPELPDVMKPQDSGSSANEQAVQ
# T1 sequence (Q15369 whole entry partner): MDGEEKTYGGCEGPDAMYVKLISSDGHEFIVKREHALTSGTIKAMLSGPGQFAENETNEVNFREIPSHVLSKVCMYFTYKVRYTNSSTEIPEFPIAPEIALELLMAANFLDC
# Experiment: Fluorescence-based protein thermal shift assay (FTS) of VBC
# Format: binding
# Details: 100 μM
# Description: HEK293 cells were treated with vehicle DMSO (1% for 2 h), 1a (0.3, 1, 3, 6 and 9 μM for 2 h), VH298 (100 μM for 2 h), MG132 (20 μM for 3 h), or FG-4592 (100 μM for 2 h) before lysis. Cell lysates were collected and incubated with VHL antibody overnight at 4° C. The proteins were immunoprecipitated using agarose beads. The levels of hydroxy-HIF-1α co-precipitated with VHL were detected using a hydroxy-HIF-1α antibody, and then visualized using ECL Western Blotting Detection Reagent (GE Healthcare). (B) Cellular thermal shift assays to monitor cellular target engagement of VHL and HIF-1α. HEK293 cell lysates were treated with 1a (3 μM) at room temperature for 30 min and then heated at different temperature ranging from 48° C. to 68° C. for 5 min. The protein samples were collected and detected by Western blotting using either VHL or PHD2 antibodies. (C) Fluorescence-based protein thermal shift assay of VBC in the presence or absence of VH298 (100 μM) and complex 1a (100 μM). […] Data are expressed as means±SD (n=3 independent experiments for figures a and b, samples for figures c and e), P values were calculated using a two-sided t-test. *P<0.05, **P<0.01 vs. DMSO group.
# After incubating HEK293 cell lysates with complex 1a followed by heating to set temperatures, VHL and PHD2 levels in the soluble fraction were quantitated by Western blotting.
row,SMILES,Shift of the melting curve of purified VBC (FTS)
1,"Cc1ncsc1-c1ccc(CNC(=O)[C@@H]2C[C@@H](O)CN2C(=O)[C@@H](NC(=O)C2(C#N)CC2)C(C)(C)C)cc1 [VH298, reference compound]",ca. 5.0 °C

# Test system: HIF-1α activation of the HRE-driven reporter
# Experiment: Dual luciferase reporter assay (HRE-driven luciferase activity)
# Format: cell-based, Human
# Details: HEK293 cells
# Description: A library of cyclometalated Ir(III)/Rh(III) metal complexes 1-14 (as racemates) with diverse structures were selected for initial screening, in order to identify favorable substructures for the design of the next round of complexes (FIG. 1a). In cells, HIF-1α moves into the nucleus and binds to the hypoxia-response element (HRE) in the promoters of transactivated genes. In this study, the dual luciferase reporter assay (DLR) was performed to monitor the variations of HRE-driven luciferase activity induced by the complexes (FIG. 1f). Human embryonic kidney HEK293 cells were treated with complexes (10 μM) for 8 h, and the HRE-driven luciferase activity of the cell lysates was determined. Complexes that inhibit the interaction between VHL and HIF-1α would be expected to increase the level of HRE-driven luciferase activity in the cell lysates.
# HEK293 cells were seeded in six well plates 24 h before transfection. HRE-luciferase plasmid (4 μg) and pRL-TK plasmid (4 μg) and TurboFect reagent (6 μL) were mixed together in serum-free DMEM medium and the resulting solution was incubated for 20 min at room temperature. The mixture was the added dropwise to the HEK293 cells in the wells. The cells were incubated for 32 h at 37° C. in a CO2 incubator before use.
# The inhibition of HIF-1α activity was assayed by a reporter assay using a dual luciferase reporter assay system (Promega, Madison, WI, USA). Transiently transfected cells were treated with complexes or P1 for 8 h before measurement. Luciferase activity was integrated over a 10 second period and measured using a spectrophotometer (Spectra-max M5, Molecular Devices, USA). The results were standardization with the activity of Renilla luciferase. All data are expressed as means±SD.
row,SMILES,Effect of isolated ligands on HRE-driven luciferase activity
1,"Brc1ccc(-c2ccccn2)cc1 [brpy, 2-(4-bromophenyl)pyridine]",neither brpy nor dmeophen had any significant effect
2,"COc1ccnc2c1ccc1c(OC)ccnc12 [dmeophen, 4,7-dimethoxy-1,10-phenanthroline]",neither brpy nor dmeophen had any significant effect

# Same assay, conditions: HEK293 cells, 8 h
row,SMILES,HRE-driven luciferase activity compared to positive control P1 (and parent complex 1)
1,COc1cc[n+]2c3c1ccc1c(OC)cc[n+](c13)[Rh-3]213([c]2cc(Br)ccc2-c2cccc[n+]21)[c]1cc(Br)ccc1-c1cccc[n+]13.F[P-](F)(F)(F)(F)F [compound 1],"slightly higher activity compared to the positive control compound, P1"

# Same assay, conditions: HEK293 cells, 8 h; complexes 1a-1n; ranking and comparison in words
row,SMILES,"HRE-driven luciferase activity, second round of screening"
1,Brc1ccc2[c](c1)[Rh-3]13([c]4cc(Br)ccc4-c4cccc[n+]41)([n+]1ccccc1-2)[n+]1ccc(-c2ccccc2)c2ccc4c(-c5ccccc5)cc[n+]3c4c21.F[P-](F)(F)(F)(F)F [1m],drastically reduced activity
2,Brc1ccc2[c](c1)[Ir-3]13([c]4cc(Br)ccc4-c4cccc[n+]41)([n+]1ccccc1-2)[n+]1ccc(Br)c2ccc4c(Br)cc[n+]3c4c21.F[P-](F)(F)(F)(F)F [1l],drastically reduced activity
3,COc1cc[n+]2c(c1)-c1cc(OC)cc[n+]1[Ir-3]213([c]2cc(Br)ccc2-c2cccc[n+]21)[c]1cc(Br)ccc1-c1cccc[n+]13.F[P-](F)(F)(F)(F)F [1h],led to a decrease in activity
4,COc1cc[n+]2c3c1ccc1c(OC)cc[n+](c13)[Ir-3]213([c]2ccccc2-c2c(C)ccc[n+]21)[c]1ccccc1-c1c(C)ccc[n+]13.F[P-](F)(F)(F)(F)F [1e],substantially weakens the activity of the complex
5,COc1cc[n+]2c3c1ccc1c(OC)cc[n+](c13)[Ir-3]213([c]2cc(C)ccc2-c2cccc[n+]21)[c]1cc(C)ccc1-c1cccc[n+]13.F[P-](F)(F)(F)(F)F [1g],second-most potent compound
6,Brc1ccc2[c](c1)[Rh-3]13([c]4cc(Br)ccc4-c4cccc[n+]41)([n+]1ccccc1-2)[n+]1ccc(Br)c2ccc4c(Br)cc[n+]3c4c21.F[P-](F)(F)(F)(F)F [1k],drastically reduced activity
7,COc1cc[n+]2c3c1ccc1c(OC)cc[n+](c13)[Ir-3]213([c]2cc(Br)ccc2-c2cccc[n+]21)[c]1cc(Br)ccc1-c1cccc[n+]13.F[P-](F)(F)(F)(F)F [1c],drastically reduced activity
8,COc1cc[n+]2c3c1ccc1c(OC)cc[n+](c13)[Rh-3]213([c]2ccccc2-c2cccc[n+]21)[c]1ccccc1-c1cccc[n+]13.F[P-](F)(F)(F)(F)F [1b],substantially more active than the Rh(III) congener 1b
9,Brc1ccc2[c](c1)[Rh-3]13([c]4cc(Br)ccc4-c4cccc[n+]41)([n+]1ccccc1-2)[n+]1cccc2ccc4ccc[n+]3c4c21.F[P-](F)(F)(F)(F)F [1i],drastically reduced activity
10,Brc1ccc2[c](c1)[Ir-3]13([c]4cc(Br)ccc4-c4cccc[n+]41)([n+]1ccccc1-2)[n+]1ccc(-c2ccccc2)c2ccc4c(-c5ccccc5)cc[n+]3c4c21.F[P-](F)(F)(F)(F)F [1n],drastically reduced activity
11,Brc1ccc2[c](c1)[Ir-3]13([c]4cc(Br)ccc4-c4cccc[n+]41)([n+]1ccccc1-2)[n+]1cccc2ccc4ccc[n+]3c4c21.F[P-](F)(F)(F)(F)F [1j],drastically reduced activity

# Same assay, conditions: HEK293 cells, complexes 10 μM, 8 h; complexes 1-14; ranking in words
row,SMILES,"HRE-driven luciferase activity (HIF-1α transcriptional activity), first round of screening"
1,COc1cc[n+]2c3c1ccc1c(OC)cc[n+](c13)[Rh-3]213([c]2cc(Br)ccc2-c2cccc[n+]21)[c]1cc(Br)ccc1-c1cccc[n+]13.F[P-](F)(F)(F)(F)F [compound 1],highest activation of HIF-1α transcriptional activity
2,F[P-](F)(F)(F)(F)F.O=[N+]([O-])c1cc2ccc[n+]3c2c2c1ccc[n+]2[Ir-3]312([c]3cc(F)cc(F)c3-c3cccc[n+]31)[c]1cc(F)cc(F)c1-c1cccc[n+]12 [compound 9],low activity
3,CCc1ccc2[c](c1)[Rh-3]13([c]4cc(CC)ccc4-c4ccc5ccccc5[n+]41)([n+]1ccc(OC)cc1-c1cc(OC)cc[n+]13)[n+]1c-2ccc2ccccc21.F[P-](F)(F)(F)(F)F [compound 6],low activity
4,CCc1ccc2[c](c1)[Rh-3]13([c]4cc(CC)ccc4-c4cccc[n+]41)([n+]1ccccc1-2)[n+]1ccc(-c2ccccc2)c2ccc4c(-c5ccccc5)cc[n+]3c4c21.F[P-](F)(F)(F)(F)F [compound 5],next most potent candidate
5,COC(=O)c1cc[n+]2c(c1)-c1cc(C(=O)OC)cc[n+]1[Rh-3]213([c]2ccccc2-c2ccc4ccccc4[n+]21)[c]1ccccc1-c1ccc2ccccc2[n+]13.F[P-](F)(F)(F)(F)F [compound 7],low activity

# Biological target: VHL (Homo sapiens, UniProt P40337)
# Sequence (P40337 whole entry): as the sequence (P40337 whole entry) above
# Sequence (Q15370 whole entry partner): as the sequence (Q15370 whole entry partner) above
# Sequence (Q15369 whole entry partner): as the sequence (Q15369 whole entry partner) above
# Experiment: Binding affinity to VHL compared with VH298
# Details: VH298 vs complex 1a
row,SMILES,"Binding affinity to VHL, stronger than complex 1a"
1,"Cc1ncsc1-c1ccc(CNC(=O)[C@@H]2C[C@@H](O)CN2C(=O)[C@@H](NC(=O)C2(C#N)CC2)C(C)(C)C)cc1 [VH298, reference compound]",ca. 100 fold
